What all share (test): NCI anticancer screen, dose series, 48 h
Assay [1] concerns RPMI-8226 leukemia.
The subject of assay [2] is HS 578T breast.
In assay [3] the test system is U251 CNS.
The test system of assay [4] is K-562 leukemia.
For assay [5], the system named is MDA-MB-231 breast.
For assay [6], the system named is MOLT-4 leukemia.
Assay [7] relates to HOP-92 NSCLC.
Assay [8] relates to SR leukemia.
Assay [9] deals with MALME-3M melanoma.
Assay [10] concerns M14 melanoma.

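Five compound concentrations were applied to cells in 96-well plates for 48 hours; endpoints were derived by simple linear interpolation of the resulting dose-response curve. Abbreviation: GI50, concentration required for 50% inhibition of growth. TGI denotes the concentration required for complete inhibition of growth.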 Bounds are passed on as bounds.

As to `O=C(Nc1ccc(Oc2ccc3nc(NC(=O)c4ccccc4)[nH]c3c2)cc1)Nc1cc(C(F)(F)F)ccc1F`, the GI50 was 0.792 µM in [1]; 1.07 µM in [2]; 1.28 µM in assay [3]; 0.262 µM in assay [4]; 2.05 µM in [5]; 0.68 µM in [6]. The GI50 in [7] was 0.887 µM; in assay [8], 3.09 µM; in assay [9], 1.3 µM; in assay [10], 0.997 µM. For the same molecule, the TGI in [1] was 3.86 µM; in assay [2], 11.6 µM; in [3], 21.6 µM; in assay [4], more than 7.59 µM; in [5] it was more than 22.9 µM; in [6], 3.83 µM. The TGI turned out to be 8.81 µM in assay [7], 20.2 µM in assay [8], 11.9 µM in assay [9] and 9.29 µM in [10].
Take `CC(=O)c1cc2c(cc1Nc1c3ccccc3nc3occ(Cl)c13)OCO2`: the GI50 was 0.0539 µM in assay [1]; 0.109 µM in assay [2]; 0.35 µM in assay [3]; 0.037 µM in assay [4]; 0.283 µM in assay [5]; 0.198 µM in assay [6]. The GI50 is 12.7 µM in assay [7], 0.12 µM in [8], 0.0796 µM in assay [9] and 0.316 µM in assay [10]. For the same molecule, the TGI in [1] was 0.139 µM; in [2], more than 69.6 µM; in [3] it was more than 100 µM; in assay [4], more than 100 µM; in [5], 0.613 µM; in assay [6] it was more than 100 µM. In addition, the TGI in assay [7] was more than 100 µM; in assay [8], 1.06 µM; in assay [9] it was 0.45 µM; in assay [10], 37.9 µM.
For `CC1CCN(CCCCCOc2ccc3oc4cc(Cl)ccc4c(=O)c3c2)CC1`, the GI50 was 5.73 µM in assay [1]; 7.32 µM in assay [2]; 5.69 µM in assay [3]; 1.58 µM in [4]; 7.6 µM in assay [5]; 2.87 µM in assay [6]. The GI50 in [7] is 6.51 µM; in assay [8] it was 1.41 µM; in [9], 8.41 µM; in assay [10] it was 1.15 µM. Further, the TGI in assay [1] came out at 15.9 µM; in assay [2], 17.8 µM; in [3], 12.4 µM; in [4], 6.09 µM; in [5] it was 14.6 µM; in [6], 10.3 µM. The TGI in assay [7] turned out to be 14.8 µM; in assay [8] it was 5.18 µM; in [9] it was 15.3 µM; in assay [10] it was 2.63 µM.
Regarding `Cc1ccc(Nc2n[nH]c(=S)s2)cc1`, the TGI in assay [1], in [2], in assay [3], in assay [4], in assay [5] and in assay [6] was more than 100 µM throughout. Also, the TGI in assay [7], in [8], in assay [9] and in [10] was more than 100 µM throughout.
As to `O=c1c2ccccc2n2n1CC(O)C2` (configuration not stated), the TGI in assay [1], in assay [2], in [3], in assay [4], in [5] and in assay [6] was more than 100 µM in each case. Moreover, the TGI in assay [7], in assay [8], in assay [9] and in [10] was more than 100 µM throughout. In addition, the GI50 in [2] and in assay [5] was more than 100 µM each time.
For the molecule `O=C1c2ccccc2C(=Cc2ccccc2)c2ccccc21`, the GI50 is 3 µM in assay [1]; 3.9 µM in [2]; 2.97 µM in assay [3]; 0.673 µM in assay [4]; 2.78 µM in assay [5]; 4.74 µM in assay [6]. The GI50 is 1.45 µM in assay [7], 0.871 µM in assay [8], 6.2 µM in assay [9] and 2.21 µM in assay [10]. The TGI was 14.6 µM in assay [1]; more than 100 µM in [2]; 9.23 µM in assay [3]; 16 µM in assay [4]; 35.9 µM in assay [5]; more than 100 µM in assay [6]. Also, the TGI came out at 5.17 µM in assay [7], 18.3 µM in [8], 23.4 µM in assay [9] and 7.86 µM in assay [10].
`COC(=O)[C@]12CC[C@@H](C)[C@H](C)[C@@H]1C1=CC[C@@H]3[C@@]4(C)C(C=O)=C[C@@](C)(COC(=O)c5ccco5)[C@@H]4C(=O)C[C@@]3(C)[C@]1(C)CC2`: the GI50 in assay [1] is 2.06 µM; in assay [2] it was 9.68 µM; in [3], 4.83 µM; in [4] it was 3.95 µM; in assay [5] it was 4.97 µM; in assay [6] it was 2.08 µM. Moreover, the GI50 was 1.37 µM in [7], 3.12 µM in [8], 0.0359 µM in assay [9] and 0.286 µM in assay [10]. For the same molecule, the TGI in assay [1] was 6.68 µM; in [2] it was more than 100 µM; in [3] it was more than 100 µM; in [4], more than 100 µM; in [5] it was more than 100 µM; in assay [6] it was 7.8 µM. The TGI is 91 µM in assay [7], 39.4 µM in assay [8], 0.256 µM in [9] and more than 100 µM in assay [10].
For the molecule `Cc1cccc(C(=O)/C=C/SC(=NC#N)SCc2ccccc2)c1`, the GI50 is 4.06 µM in [1]; 27.9 µM in [2]; 22.5 µM in assay [3]; 22 µM in [4]; 20 µM in assay [5]; 6.72 µM in [6]. Besides, the GI50 is 12.3 µM in assay [7], 3.99 µM in assay [8], 12.3 µM in assay [9] and 24.8 µM in assay [10]. For the same molecule, the TGI in assay [1] is more than 100 µM; in assay [2] it was 94.8 µM; in [3] it was 99.4 µM; in assay [4], more than 100 µM; in assay [5], 41.5 µM; in assay [6] it was more than 100 µM. Also, the TGI is 47.9 µM in [7], more than 100 µM in assay [8], 32 µM in assay [9] and 59.1 µM in [10].
In the case of `CCOC(=O)/C=C/c1cc2cc(-c3csc4ccccc34)ccc2[nH]1`, the GI50 in [1] is 2.87 µM; in assay [2], 5.07 µM; in assay [3], 5.49 µM; in assay [4] it was 2.09 µM; in assay [5], 5.26 µM; in assay [6] it was 2.44 µM. For the same molecule, the GI50 in assay [7] is 10.7 µM; in assay [8], 1.98 µM; in [9], 6.81 µM; in assay [10], 5.42 µM. In addition, the TGI in assay [1] is 12.3 µM; in assay [2] it was 22.2 µM; in assay [3], 18.8 µM; in [4] it was 10.3 µM; in assay [5], 18.2 µM; in [6] it was 10.4 µM. The TGI in assay [7] was found to be 29.5 µM; in assay [8], 8.04 µM; in [9], 20.5 µM; in assay [10], 22.8 µM.
Consider `Cc1noc(C)c1-c1cc(O)cc(C(O)c2ccccc2)c1` (configuration not stated), for which the GI50 was 1.94 µM in assay [1]; 1.93 µM in [2]; 15 µM in [3]; 8.69 µM in [4]; 3.92 µM in assay [5]; 17.9 µM in assay [6]. Also, the GI50 in assay [7] was 1.02 µM; in [8], 1.01 µM; in assay [9] it was 28.9 µM; in assay [10], 4.48 µM. Also, the TGI in [1] is 9.64 µM; in [2], 90.7 µM; in assay [3], more than 100 µM; in assay [4], more than 100 µM; in assay [5], more than 100 µM; in assay [6] it was 80.7 µM. For the same molecule, the TGI in assay [7] is 72.9 µM; in [8], more than 100 µM; in assay [9], more than 100 µM; in assay [10], more than 100 µM.
`O=C(Nc1ccc(Cl)cc1F)c1cc(I)ccc1O`: the GI50 in assay [1] was 0.737 µM; in assay [2] it was 1.14 µM; in assay [3], 1.64 µM; in assay [4] it was 1.09 µM; in assay [5], 1.67 µM; in assay [6], 2.41 µM. For the same molecule, the GI50 in assay [7] is 0.171 µM; in assay [8], 1.5 µM; in assay [9], 0.608 µM; in [10], 0.711 µM. The TGI in assay [1] is 5.01 µM; in assay [2] it was 7.29 µM; in assay [3], 21.2 µM; in [4], more than 100 µM; in [5] it was 7.49 µM; in [6] it was 6.89 µM. Besides, the TGI was 0.679 µM in [7], more than 100 µM in assay [8], 3.87 µM in assay [9] and 5.57 µM in assay [10].
Take `CN(C)c1ccc(/C=C2\N=C(c3ccc([N+](=O)[O-])cc3)OC2=O)cc1`: the TGI in assay [1], in assay [2], in assay [3], in [4], in [5] and in assay [6] was more than 100 µM throughout. Further, the TGI in assay [7] is 97 µM; in [8] it was 86.9 µM; in assay [9], more than 100 µM; in [10], more than 100 µM.
On to `O=C(CN1CCN(c2ccc(Cl)cc2)CC1)N1CCN(c2nnc(-c3ccc(Cl)cc3)c(-c3ccc(Cl)cc3)n2)CC1`, for which the GI50 in assay [1] was more than 100 µM; in assay [2] it was 24 µM; in assay [3] it was 41.7 µM; in assay [4], more than 100 µM; in assay [5], 50.8 µM; in assay [6], 5.92 µM. In addition, the GI50 in assay [7] was 22.4 µM; in [8], 10.1 µM; in assay [9], 39.9 µM; in [10], 28.2 µM. Also, the TGI in assay [1], in assay [2], in assay [3], in assay [4], in [5] and in assay [6] was more than 100 µM in each case. The TGI in assay [7] is 60.4 µM; in assay [8], 53.9 µM; in [9], more than 100 µM; in assay [10], more than 100 µM.
For `COc1ccc(-c2nn(-c3cccc(NC(=O)c4ccc5c(c4)OCCO5)c3)cc2-c2ccncc2)cc1Cl`, the GI50 in [1] was 1.36 µM; in assay [2], 1.61 µM; in [3], 1.18 µM; in assay [4] it was 0.71 µM; in assay [5] it was 2.11 µM; in [6], 2.46 µM. Further, the GI50 in [7] is 0.335 µM; in [8], 1.1 µM; in assay [9] it was 0.833 µM; in [10] it was 1.57 µM. In addition, the TGI was found to be 6.65 µM in [1]; 8.13 µM in assay [2]; 12.7 µM in assay [3]; 15.9 µM in assay [4]; 12.2 µM in assay [5]; 25.7 µM in assay [6]. The TGI in assay [7] was 4.99 µM; in assay [8] it was 5.66 µM; in assay [9], 6.72 µM; in assay [10] it was 4.28 µM.
Take `CC(=O)O[C@H](C[C@H](C(C)C)N(C)C(=O)[C@@H](NC(=O)[C@H]1CCCCN1C)C(C)C)c1nc(C(=O)N[C@@H](Cc2ccccc2)C[C@H](C)C(=O)O)c(C(C)C)s1`: the GI50 in [1], in assay [2], in assay [3], in assay [4], in [5] and in assay [6] was less than 0.00333 µM each time. For the same molecule, the GI50 in assay [7] was 0.00521 µM; in assay [8], less than 0.00333 µM; in [9] it was less than 0.00333 µM; in assay [10] it was less than 0.00333 µM. For the same molecule, the TGI is more than 22.6 µM in assay [1]; 3.08 µM in [2]; more than 33.3 µM in [3]; more than 33.3 µM in [4]; more than 15.5 µM in [5]; more than 33.3 µM in assay [6]. Besides, the TGI in assay [7] was more than 15.5 µM; in assay [8] it was more than 33.3 µM; in assay [9], more than 33.3 µM; in assay [10] it was 0.161 µM.
For `C=CC(C)(O)/C=C/C=C(\C)C(CC1OC1(C)C)OC(=O)/C(C)=C\C` (configuration not stated), the TGI in assay [1], in [2], in [3], in assay [4], in [5] and in assay [6] was more than 100 µM throughout. The TGI in assay [7], in assay [8], in [9] and in [10] was more than 100 µM each time.
